Assay results from US20100113334A1, “METHODS FOR REDUCING OR PREVENTING TRANSMISSION OF NOSOCOMIAL PATHOGENS IN A HEALTH CARE FACILITY” (priority 2003, published 2010).
Entries after “also recorded” stand apart in the source; their conditions may differ. Read-outs that look alike come from different tables or passages of the source.

Experiments:
Total Enterococci = test: VRE suppression in a mouse model (Example 1), total enterococci in faeces; format: in vivo, mice
Text: Mice were colonized with a clinical isolate VanA strain of E. faecium (VRE) isolated from a septicemic patient. A single inoculation of 5×10^8 cfu VRE by oral gavage (Day 0) was followed by treatment with vancomycin in the drinking water to maintain colonization. On day 22, each group received the same vancomycin-containing drinking water. […] The control group consisted of five mice, while the ramoplanin group consisted of four mice.

[1] = system: VRE (VRE faecium, VRE faecalis); test: In vitro activity (MIC90), internal Phase II isolates; format: cell-based, vancomycin-resistant Enterococcus; conditions: 235 strains, internal Phase II data
[2] = system: E. faecium C68 (VanB-type clinical VRE isolate); test: Minimum-inhibitory concentration for VRE C68; format: cell-based
Description: Pathogens Studied: E. faecium C68, a previously described VanB-type clinical VRE isolate, was used for the following murine VRE experiments (Donskey et al., J. Microbial. Meth. 1807: 1-8, 2003). […] Klebsiella pneumoniae P62 is a clinical isolate that produces an SHV type extended-spectrum β-lactamase (ESBL). Candida glabrata A239 is a clinical isolate with a fluconazole minimum-inhibitory concentration of 2 μg/mL.

VRE C68 = test: Eradication of VRE stool colonization in mice (Example 2); format: in vivo
Description: (§1) Quantification of Stool Pathogens: Fresh stool specimens were processed as described by Donskey et al. (supra). In order to quantify VRE, K. pneumoniae, and C. glabrata, diluted samples were plated onto Enterococcosel agar containing vancomycin 20 μg/mL, MacConkey agar containing ceftazidime 10 μg/mL, or Sabouraud Dextrose Agar (Becton, Dickinson, and Company, Sparks, Md.) containing piperacillin/tazobactam 16 μg/mL and linezolid 8 μg/mL, respectively. The plates were incubated in room air at 37° C. far 24 or 48 hours, and the number of colony-forming units (CFU) of each pathogen per gram of sample was calculated.
High-density VRE stool colonization was established in mice by administering subcutaneous clindamycin (1.4 mg) once each day for 2 days before and 7 days after orogastric inoculation of 10^6 colony-forming units (CFU) of VRE C68 using a stainless steel feeding tube (Perfektum, Popper & Sons, New Hyde Park, N.Y.). […] Six mice were included in each treatment group.
To evaluate the possibility that ramoplanin-treated mice were being re-exposed to VRE from their environment, broth-enrichment cultures for VRE were performed as previously described Ray et al. (JAMA 287: 1400-1401, 2002) after contacting cage bottoms and tops, water bottles, and food with pre-moistened cotton-tipped swabs.

total anaerobes = test: Effect on indigenous stool microflora (Example 3), quantitative culture; format: in vivo, mice; conditions: 100 μg/mL in drinking water, seven days
Bacteroides species = test: as above; format: in vivo, mice; conditions: 100 μg/mL in drinking water, seven days
[3] = system: facultative and aerobic gram-negative bacilli; test: as above; format: in vivo, mice
Lactobacillus species = test: as above; format: in vivo, mice
Description: Female CF1 mice (Harlan Sprague-Dawley, Indianapolis) weighing 25-30 g were used in these experiments. In order to minimize the risk of cross-contamination, mice were housed in individual cages with plastic filter tops. […] Quantitative cultures for facultative and aerobic gram-negative bacilli, enterococci, total anaerobes, Bacteroides species, Lactobacillus species, and Clostridium species were performed by plating serially-diluted specimens onto MacConkey agar (Difco Laboratories, Detroit), Enterococcosel agar (Becton Dickinson, Cockeysville, Md.), Brucella agar (Becton Dickinson), Bacteroides bile esculin agar, Rogosa agar, and Egg Yolk agar, respectively. For culture of anaerobes, stool samples were processed inside an anaerobic chamber (Coy Laboratories, Grass Lake, Mich.). Denaturing gradient gel electrophoresis (DGGE) of PCR-amplified bacterial ribosomal RNA genes from stool was performed as described by Donskey et al. (supra).

Enterococcus species = test: as above; format: in vivo, mice
VRE [4] = test: Effect of prior ramoplanin treatment on establishment of VRE colonization (Example 4); format: in vivo, mice; conditions: 10^7 CFU VRE 4 hours or 1, 2, 4 days after 7 days of 100 μg/ml; P>0.05 vs controls
Text: The density of VRE in stool was monitored before and 1 and 4 days after inoculation. Four mice were included in each treatment group.

VRE [5] = test: Prevention of cross-transmission of VRE among mice in communal cages (Example 5); format: in vivo
Description: One set of experiments was performed to evaluate the ability of ramoplanin to prevent cross-transmission and overgrowth of VRE among mice in communal cages. High-density VRE stool colonization (˜7 log10 CFU/g) was established in 2 mice as described above. […] All mice were treated with subcutaneous clindamycin (1.4 mg) once daily for 5 days. After 9 days, all mice were separated into individual cages and supplied with regular drinking water.

K. pneumoniae P62 = test: Establishment of colonization during ramoplanin treatment (Example 6); format: in vivo, mice; conditions: inoculated on day 2 of a 6-day course, 100 μg/ml in drinking water
Description: as §1
The density of the pathogens in stool was monitored every 3-4 days. Four mice were included in each treatment group.

[6] = Storage stability of ramoplanin granules for oral solution; format: physicochemical
Description: The contents of the packet can be reconstituted with approximately 15-30 mL of water, and the resulting solution either consumed directly, or further diluted with water, cranberry juice, apple juice, or 7-Up prior to drinking. After consumption, the drug may be followed with subsequent amounts of these beverages or with food (e.g., cracker, bread). […] Alternatively, ramoplanin is available as capsules containing pharmaceutically acceptable excipients that are generally regarded as safe.

E faecalis = conditions: 30 strains; cited from earlier work
E. faecium = conditions: 10 strains; cited from earlier work
[7] = day 8 of 100 μg/ml drinking water, 8 mice
[8] = 3 days after discontinuation (day 10)

Substance: Ramoplanin
- Enterococci: Total Enterococci (Total Enterococci; Day 22, prior to ramoplanin therapy): 9.8 log 10 cfu/g faeces
- Enterococci: Total Enterococci (Total Enterococci; Day 29, completion of ramoplanin therapy): <2.4 log 10 cfu/g faeces
- Enterococci: Total Enterococci (Total Enterococci; Day 36, 7 days after completion of ramoplanin therapy): 8.6 log 10 cfu/g faeces
- Ramoplanin MIC90 [1]: 0.5 µg/mL
- minimum-inhibitory concentration [2]: 0.125 µg/mL
- mice that developed a recurrence of colonization after discontinuing treatment (VRE C68; 100 μg/ml in drinking water): One hundred
- mice that developed a detectable recurrence of colonization after discontinuing treatment (VRE C68; 500 μg/ml in drinking water): 50%
- levels of VRE in stool during treatment (VRE C68; 100 or 500 μg/ml in drinking water, 8 days, P<0.0001 vs controls): undetectable levels
- mice with VRE detectable in sections of the cecal lining (VRE C68; [7]): 25%
- mice with negative stool and cecal content cultures for VRE (VRE C68; [7]): 100%
- level of VRE in sections of the cecal lining (VRE C68; the 2 positive mice, day 8 of 100 μg/ml drinking water): 2-3 log10 CFU/g
- mean density of total anaerobes in stool (total anaerobes): not significantly affected
- mean density of Bacteroides species in stool (Bacteroides species): not significantly affected
- mean density of total facultative and aerobic gram-negative bacilli in stool [3, 8]: not significantly different from baseline
- mean density of total facultative and aerobic gram-negative bacilli in stool ([3]; day 7 of treatment, P<0.05): increased significantly
- Lactobacillus species in stool (Lactobacillus species; [8]): returned to pre-treatment levels
- Lactobacillus species in stool (Lactobacillus species; ramoplanin treatment, P<0.001): markedly reduced
- Enterococcus species in stool (Enterococcus species; at least 11 days after discontinuation (day 18)): remained significantly reduced
- Enterococcus species in stool (Enterococcus species; ramoplanin treatment, P<0.001): significantly reduced
- overgrowth / establishment of VRE stool colonization after prior ramoplanin treatment (VRE [4]): did not facilitate the establishment of stool colonization; also recorded: did not develop significant overgrowth of VRE
- VRE colonization in the colonized mouse added to the communal cage (VRE [5]; 100 μg/ml in drinking water, clindamycin-treated mice): rapidly inhibited
- VRE colonization of the other mice during ramoplanin treatment (VRE [5]; 100 μg/ml in drinking water, communal cage): none of the other mice developed detectable levels of colonization
- mice with VRE colonization detected after discontinuation of ramoplanin (VRE [5]; within 5 days after transfer to individual cages, 4 of 5 mice): 80%
- overgrowth of K. pneumoniae P62 in stool (K. pneumoniae P62): facilitated overgrowth
- stability of 400 mg granulated powder packets ([6]; refrigerated conditions): stable for at least one year
- shelf life of reconstituted aqueous solution ([6]; stored at refrigerated conditions): 48 h
- ramoplanin in stool (100 μg/ml dose, 3 days after discontinuation (day 10)): no ramoplanin was detectable
- concentration in stool, range (100 μg/ml dose, day 7 of treatment, n=5 mice): 156 to 312.5 µg/g
- concentration in stool, range (300 μg/ml dose, day 7, n=5 mice): 300 to 320 µg/g
- Ramoplanin MIC90 (E faecalis): 0.5 µg/mL
- Ramoplanin MIC90 (E. faecium): 0.5 µg/mL
